Laboratory results: patent US20050143628A1, “Methods for characterizing tissue or organ condition or status” (priority 2003, published 2005)
“And” between values parts separate entries of the source, which are not always exact repeats. Identical values can stand only once. Like-named read-outs stand apart in the source and are kept apart here.

Columns and labels:
rat liver [1] = test: Serum clinical chemistry: alanine aminotransferase (ALT) after 3-day treatment
Description: (§1) After 3-day treatment, rat liver samples were collected for RNA extraction and histo-pathology examination. Sera from the same rats were subjected to clinical chemistry monitoring.
(§2) Liver injury was identified by the individual clinical chemistry measurement if its level was outside +/− two standard deviations of the averaged level of normal animals.

rat liver [2] = test: Serum clinical chemistry: aspartate aminotransferase (AST) after 3-day treatment
Description: as §1, §2

rat liver [3] = test: Serum clinical chemistry: alkaline phosphatase (ALP) after 3-day treatment
Description: as §1, §2

rat liver [4] = test: Serum clinical chemistry: total bilirubin (Tbil) after 3-day treatment
Description: as §1, §2

rat liver [5] = test: Serum clinical chemistry: cholesterol (Chol) after 3-day treatment
Description: as §1, §2

rat liver [6] = conditions: for Pathological observations in liver: model false positive
Description: as §1

rat liver [7] = test: Hepatotoxicity score (HS) combined from five clinical chemistry measurements, threshold -0.25; conditions: 3-day treatment
rat liver [8] = conditions: in vivo, 150 mg/kg/day
[9] = rat serum, dose 50 mg/kg/day, individual rats
[10] = rat serum, dose 1 mg/kg/day, individual rats
[11] = rat serum, dose 45 mg/kg/day, individual rats
[12] = rat serum, dose 450 mg/kg/day, individual rats
[13] = rat serum, dose 320 mg/kg/day, individual rats
[14] = SD rats, 10 mg/kg/day, 3-day treatment, the other two of three treated rats
[15] = rat serum, dose 500 mg/kg/day, individual rats
[16] = rat serum, dose 100 mg/kg, individual rats
[17] = rat serum, dose 1000 mg/kg, individual rats
[18] = rat serum, dose 160 mg/kg, individual rats
[19] = rat serum, dose 1600 mg/kg, individual rats
[20] = rat serum, dose .001 mg/kg/day, individual rats

`C[C@H]1C(=O)O[C@@H]2CCN3CC=C(COC(=O)[C@](C)(O)[C@]1(C)O)[C@H]23` [monocrotaline, reference compound] was tested, and the ALT (rat liver [1]; [9]) was 44.000 and 64.000 and 610.000, the AST (rat liver [2]; [9]) was 123.000 and 135.000 and 270.000 and the ALP (rat liver [3]; [9]) was 194.000 and 211.000 and 298.000. The TBil (rat liver [4]; [9]) was 0.200 (2×) and 1.500, the Chol. (rat liver [5]; [9]) was 54.000 and 61.000 and 69.000 and the “Histopathology examination of liver” value (rat liver [6]; SD rat, 50 mg/kg/day, 3-day treatment, HS false negative sample) was “no observable liver abnormality”. The “Liver damage call by hepatotoxicity score versus individual clinical chemistry measures” value (rat liver [7]; one SD rat, high dose 50 mg/kg/day) was “false negatives”.
`CCSCC[C@H](N)C(=O)O` [L-ethionine] was tested, and the “Pathological observations in liver” value (rat liver [6]; 50 mg/kg/day treated group, 3-day treatment) was “noticeable pathological changes”.
For `CCN(CC)N=O` [diethylnitrosamine], the “Pathological observations in liver” value (rat liver [6]; 100 mg/kg/day treated group, 3-day treatment) was “noticeable pathological changes”.
`CC[C@H]1/C=C/C=C/C[C@@H](C)[C@H](O)[C@@](C)(O)C(=O)[C@@H](C)[C@H](O)[C@@H](C)C(=O)[C@@H](C)[C@H](O)[C@@H](C)/C=C/C(=O)O[C@@H]2[C@H](C)[C@H](CC1)O[C@]1(CC[C@H](C)[C@H](C[C@@H](C)O)O1)[C@H]2C` [oligomycin] was tested, and the ALT (rat liver [1]; [10]) was 44.000 and 46.000 and 58.000, the AST (rat liver [2]; [10]) was 72.000 (2×) and 75.000 and the ALP (rat liver [3]; [10]) was 361.000 and 289.000 and 397.000. For the same compound, the TBil (rat liver [4]; [10]) was 0.200 and the Chol. (rat liver [5]; [10]) was 47.000 and 72.000 and 59.000.
In the case of `O=C1NC(=O)C(c2ccccc2)(c2ccccc2)N1` [phenytoin], the ALT (rat liver [1]; [11]) is reported as 26.000 and 19.000, the ALT (rat liver [1]; [12]) is reported as 49.000 and 38.000 and 24.000 and the AST (rat liver [2]; [11]) is reported as 65.000 and 81.000. For the same compound, the AST (rat liver [2]; [12]) was 130.000 and 71.000 and 65.000, the ALP (rat liver [3]; [11]) was 199.000 and 214.000 and the ALP (rat liver [3]; [12]) was 255.000 and 233.000 and 312.000. For the same compound, the TBil (rat liver [4]; [11]) was 0.200, the TBil (rat liver [4]; [12]) was 0.200 and 0.100 (2×) and the Chol. (rat liver [5]; [11]) was 77.000 and 71.000. The Chol. (rat liver [5]; [12]) was 61.000 and 73.000 and 66.000.
With `CN(C)C(=N)N=C(N)N` [metformin] the “Histopathology examination of liver” value (rat liver [6]; rat, in vivo, 900 mg/kg/day) was “no observable liver abnormality” and the “Liver damage call by hepatotoxicity score versus individual clinical chemistry measures” value (rat liver [7]; one SD rat, 900 mg/kg/day) was “false negatives”.
In the case of `CC/C(=C(\c1ccccc1)c1ccc(OCCN(C)C)cc1)c1ccccc1` [tamoxifen, reference compound], the “Histopathology examination of liver” value (rat liver [6]; rat, in vivo, 5 mg/kg/day) is reported as “no observable liver abnormality”.
Compound `Cn1c(=O)c2[nH]cnc2n(C)c1=O` [theophylline] has a TBil (rat liver [4]; rat, in vivo, 75 mg/kg) of 0.100.
In the case of `C1CCC(C(CC2CCCCN2)C2CCCCC2)CC1` (centres unmarked) [perhexilene, reference compound], the ALT (rat liver [1]; [13]) is reported as 51.000 and 129.000 and 31.000, the AST (rat liver [2]; [13]) is reported as 103.000 and 116.000 and 98.000 and the ALP (rat liver [3]; [13]) is reported as 248.000 and 340.000 and 245.000. The TBil (rat liver [4]; [13]) was 0.100 and the Chol. (rat liver [5]; [13]) was 45.000 and 44.000 and 66.000.
`CN1C(=O)CN=C(c2ccccc2)c2cc(Cl)ccc21` [diazepam] showed a TBil (rat liver [4]; rat, in vivo) of 0.100.
With `CN(C)C=O` [dimethlformamide] the “Pathological observations in liver” value (rat liver [6]; 1000 mg/kg/day treated group, 3-day treatment) was “noticeable pathological changes”.
For `C[C@]12CC[C@@H]3c4ccc(O)cc4CC[C@H]3[C@@H]1CC[C@@H]2O[C@@H]1O[C@H](C(=O)O)[C@@H](O)[C@H](O)[C@H]1O` [estradiol glucuronide], the “Liver injury by ALT” value (rat liver [1]; [14]) was “showed liver injury”, the “Liver injury by ALP” value (rat liver [3]; [14]) was “showed liver injury” and the “Histopathology examination of liver” value (rat liver [6]; SD rats, 10 mg/kg/day treatment group, 3-day treatment) was “Cellular abnormality”. For the same compound, the “Liver damage call by hepatotoxicity score versus individual clinical chemistry measures” value (rat liver [7]; SD rat, high dose 10 mg/kg/day) was “positives detected by the hepatotoxicity score”.
In the case of `CC1=C(/C=C/C(C)=C/C=C/C(C)=C/CO)C(C)(C)CCC1` [Retinol], the ALT (rat liver [1]; [15]) is reported as 27.000 and 31.000 and 37.000, the AST (rat liver [2]; [15]) is reported as 88.000 and 157.000 and 112.000 and the ALP (rat liver [3]; [15]) is reported as 259.000 and 241.000 and 348.000. The TBil (rat liver [4]; [15]) was 0.200 and the Chol. (rat liver [5]; [15]) was 67.000 and 50.000 and 47.000.
For penicillin, the ALT (rat liver [1]; [16]) was 51.000 and 41.000 and 44.000, the ALT (rat liver [1]; [17]) was 52.000 (2×) and 25.000 and 42.000 and the AST (rat liver [2]; [16]) was 127.000 and 144.000. The AST (rat liver [2]; [17]) was 134.000 (2×) and 80.000 and 90.000, the ALP (rat liver [3]; [16]) was 290.000 and 247.000 and the ALP (rat liver [3]; [17]) was 215.000 (2×) and 247.000 and 253.000. For the same compound, the TBil (rat liver [4]; [16]) was 0.100, the TBil (rat liver [4]; [17]) was 0.100 and the Chol. (rat liver [5]; [16]) was 49.000 and 37.000 and 69.000. For the same compound, the Chol. (rat liver [5]; [17]) was 41.000 (2×) and 43.000 and 73.000.
For `CC(C)(C)c1ccc(C(O)CCCN2CCC(C(O)(c3ccccc3)c3ccccc3)CC2)cc1` (centres unmarked) [terfenadine], the TBil (rat liver [4]; rat, in vivo, 15 mg/kg) was 0.100 and the TBil (rat liver [4]; rat, in vivo, 150 mg/kg) was 0.100.
In the case of `CC(=O)Oc1ccccc1C(=O)O` [aspirin], the “Histopathology examination of liver” value (rat liver [6]; rat, in vivo, 150 mg/kg/day) is reported as “Cellular abnormality” and the “Liver damage call by hepatotoxicity score versus individual clinical chemistry measures” value (rat liver [8]) is reported as “positives detected by the hepatotoxicity score”.
For `CN[C@@H]1[C@H](O)[C@H](NC)[C@H]2O[C@@]3(O)C(=O)C[C@@H](C)O[C@H]3O[C@@H]2[C@H]1O` [spectinomycin], the ALT (rat liver [1]; [18]) was 52.000 and 36.000 and 46.000, the ALT (rat liver [1]; [19]) was 60.000 and 44.000 and 30.000 and the AST (rat liver [2]; [18]) was 83.000 and 74.000 and 70.000. The AST (rat liver [2]; [19]) was 98.000 and 95.000 and 86.000, the ALP (rat liver [3]; [18]) was 174.000 and 181.000 and the ALP (rat liver [3]; [19]) was 246.000 and 189.000 and 176.000. The TBil (rat liver [4]; [18]) was 0.100, the TBil (rat liver [4]; [19]) was 0.100 and the Chol. (rat liver [5]; [18]) was 60.000 and 59.000 and 54.000. For the same compound, the Chol. (rat liver [5]; [19]) was 36.000 and 62.000 and 26.000.
microcystin was tested, and the ALT (rat liver [1]; rat, in vivo) was 140.000 and 258.000 and 144.000, the AST (rat liver [2]; rat, in vivo) was 204.000 and 384.000 and 296.000 and the ALP (rat liver [3]; rat, in vivo) was 518.000 and 427.000 and 514.000. For the same compound, the TBil (rat liver [4]; rat, in vivo) was 0.600 and 0.400 and the Chol. (rat liver [5]; rat, in vivo) was 84.000 and 67.000 and 95.000.
In the case of aflatoxin B, the ALT (rat liver [1]; rat, in vivo) is reported as 81.000 and 48.000 and 59.000, the AST (rat liver [2]; rat, in vivo) is reported as 206.000 and 132.000 and 156.000 and the ALP (rat liver [3]; rat, in vivo) is reported as 297.000 and 166.000 and 217.000. For the same compound, the TBil (rat liver [4]; rat, in vivo) was 0.200 and the Chol. (rat liver [5]; rat, in vivo) was 64.000 and 75.000 and 63.000.
In the case of TNFalpha, the ALT (rat liver [1]; [20]) is reported as 53.000 and 48.000 and 55.000, the AST (rat liver [2]; [20]) is reported as 70.000 (2×) and 59.000 and the ALP (rat liver [3]; [20]) is reported as 728.000 and 255.000 and 312.000. For the same compound, the TBil (rat liver [4]; [20]) was 0.200 (2×) and 0.100 and the Chol. (rat liver [5]; [20]) was 50.000 and 60.000 (2×).
